In ChEMBL document CHEMBL1153623, “Synthesis and bioactivity of substituted indan-1-ylideneaminoguanidine derivatives” (Eur J Med Chem, 2009):
pIC50: −log10 of the molar value.

How the values were obtained:
[1] = molecular target: Sodium/hydrogen exchanger 1 (Rattus norvegicus, UniProt P26431); assay: Inhibition of NHE1 in Sprague-Dawley rat platelet-rich plasma by optical swelling assay
[2] = tested on: Rattus norvegicus; assay: Cardioprotective activity against ischemic Sprague-Dawley rat heart assessed as reduction in infarct size at 1 mg/kg, iv treated 5 mins before left anterior descending coronary artery occlusion measured after 2 hrs of reperfusion by Evans staining; type: functional; parameters: scale not given: the % may be the effect or the level left
[3] = tested on: Rattus norvegicus; assay: Cardioprotective activity against ischemic Sprague-Dawley rat heart assessed as serum creatine kinase level at 1 mg/kg, iv treated 5 mins before left anterior descending coronary artery occlusion measured after 2 hrs of reperfusion by Evans staining; type: functional
[4] = molecular target: Sodium/hydrogen exchanger 1 (Rattus norvegicus) (UniProt P26431); assay: Ratio of cariporide IC50 to compound IC50 for NHE1 in Sprague-Dawley rat platelet-rich plasma by optical swelling assay
[5] = tested on: Rattus norvegicus; assay: Cardioprotective activity against ischemic Sprague-Dawley rat heart assessed as reduction in infarct size at 0.5 mg/kg, iv treated 5 mins before left anterior descending coronary artery occlusion measured after 2 hrs of reperfusion by Evans staining; type: functional; parameters: scale not given: the % may be the effect or the level left
[6] = tested on: Rattus norvegicus; assay: Cardioprotective activity against ischemic Sprague-Dawley rat heart assessed as reduction in infarct size at 0.25 mg/kg, iv treated 5 mins before left anterior descending coronary artery occlusion measured after 2 hrs of reperfusion by Evans staining; type: functional; parameters: scale not given: the % may be the effect or the level left
[7] = tested on: Rattus norvegicus; assay: Cardioprotective activity against ischemic Sprague-Dawley rat heart assessed as serum creatine kinase level at 0.5 mg/kg, iv treated 5 mins before left anterior descending coronary artery occlusion measured after 2 hrs of reperfusion by Evans staining; type: functional
[8] = tested on: Rattus norvegicus; assay: Cardioprotective activity against ischemic Sprague-Dawley rat heart assessed as serum creatine kinase level at 0.25 mg/kg, iv treated 5 mins before left anterior descending coronary artery occlusion measured after 2 hrs of reperfusion by Evans staining; type: functional

Sequence of Sodium/hydrogen exchanger 1 (P26431 whole entry, the tested form may be a part): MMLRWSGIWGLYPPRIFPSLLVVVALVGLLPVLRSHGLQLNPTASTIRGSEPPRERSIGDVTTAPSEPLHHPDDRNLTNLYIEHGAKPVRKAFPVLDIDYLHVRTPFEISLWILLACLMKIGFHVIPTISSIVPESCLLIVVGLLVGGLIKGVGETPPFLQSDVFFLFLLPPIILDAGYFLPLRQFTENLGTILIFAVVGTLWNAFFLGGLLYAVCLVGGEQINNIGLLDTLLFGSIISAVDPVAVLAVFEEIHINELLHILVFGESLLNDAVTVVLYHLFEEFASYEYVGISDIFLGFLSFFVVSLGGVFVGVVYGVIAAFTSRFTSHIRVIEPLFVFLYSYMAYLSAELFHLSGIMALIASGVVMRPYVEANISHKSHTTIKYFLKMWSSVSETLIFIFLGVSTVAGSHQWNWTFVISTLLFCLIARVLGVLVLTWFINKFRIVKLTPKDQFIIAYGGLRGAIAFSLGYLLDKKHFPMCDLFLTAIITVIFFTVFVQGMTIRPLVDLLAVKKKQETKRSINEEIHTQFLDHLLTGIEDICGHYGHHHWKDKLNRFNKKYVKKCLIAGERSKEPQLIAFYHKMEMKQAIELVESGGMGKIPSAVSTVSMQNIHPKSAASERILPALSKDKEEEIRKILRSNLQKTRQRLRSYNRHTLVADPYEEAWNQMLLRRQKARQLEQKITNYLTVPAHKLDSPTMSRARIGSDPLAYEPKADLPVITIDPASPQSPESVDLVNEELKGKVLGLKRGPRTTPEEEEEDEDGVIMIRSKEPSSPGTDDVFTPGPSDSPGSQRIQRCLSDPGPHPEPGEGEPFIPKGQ
Sequence of Sodium/hydrogen exchanger 1 (Rattus norvegicus) (P26431 whole entry, the tested form may be a part): as above

SMILES | pIC50 [1] | other results
COc1cc2c(c(OC)c1OC)CC(Sc1nc3ccccc3[nH]1)/C2=N/N=C(N)N (configuration not stated) | 7.97 | 
NC(N)=N/N=C1\c2ccc([N+](=O)[O-])cc2CC1Sc1nc2ccccc2[nH]1 (configuration not stated) | 8.93 | 
NC(N)=N/N=C1\c2cc(F)ccc2CC1Sc1nc2ccccc2s1 (configuration not stated) | 6.54 | 
COc1cc2c(c(OC)c1OC)CC(Sc1nc3cc([N+](=O)[O-])ccc3[nH]1)/C2=N/N=C(N)N (configuration not stated) | 7.50 | 
NC(N)=N/N=C1\c2cc(Cl)ccc2CC1Sc1nc2ccccc2[nH]1 (configuration not stated) | 6.49 | 
CC(C)c1ccc(C(=O)N=C(N)N)cc1S(C)(=O)=O [CARIPORIDE] |  | Activity [2]: 45.74%; Activity [3]: 3.53 U/ml
NC(N)=N/N=C1\c2cc(Cl)ccc2CC1Sc1nc2ccccc2s1 (configuration not stated) | 7.46 | 
NC(N)=N/N=C1\c2cc(Cl)ccc2CC1Sc1nc2cc([N+](=O)[O-])ccc2[nH]1 (configuration not stated) | 7.41 | 
Cl.NC(N)=N/N=C1\c2ccccc2CC1Sc1nc2cc([N+](=O)[O-])ccc2[nH]1 (configuration not stated) | 8.76 | Activity [2]: 49.18%; Activity [3]: 4.12 U/ml
Cl.Cl.NC(N)=N/N=C1\c2ccccc2CC1Sc1nc2ccccc2[nH]1 (configuration not stated) | 8.76 | Activity [2]: 42.89%; Activity [3]: 3.02 U/ml
NC(N)=N/N=C1\c2ccc(Cl)cc2CC1Sc1nc2cc([N+](=O)[O-])ccc2[nH]1 (configuration not stated) | 7.91 | 
NC(N)=N/N=C1\c2cc(Cl)cc(Cl)c2CC1Sc1nc2ccccc2[nH]1 (configuration not stated) | 6.18 | 
NC(N)=N/N=C1\c2ccc(Cl)cc2CC1Sc1nc2ccccc2[nH]1 (configuration not stated) | 7.67 | 
COc1cc2c(cc1OC)/C(=N\N=C(N)N)C(Sc1nc3ccccc3s1)C2 (configuration not stated) | 8.61 | 
COc1cc2c(cc1OC)/C(=N\N=C(N)N)C(Sc1nc3ccccc3[nH]1)C2 (configuration not stated) | 7.95 | 
COc1ccc2[nH]c(SC3Cc4ccc(F)cc4/C3=N\N=C(N)N)nc2c1 (configuration not stated) | 7.59 | 
NC(N)=N/N=C1\c2cc(F)ccc2CC1Sc1nc2cc([N+](=O)[O-])ccc2[nH]1 (configuration not stated) | 7.42 | 
Br.COc1ccc2[nH]c(SC3Cc4cc(Cl)ccc4/C3=N\N=C(N)N)nc2c1.Cl (configuration not stated) | 9.03 | Ratio IC50 [4]: 69; Activity [2]: 36.16%; Activity [5]: 40.87%; Activity [6]: 42.27%; Activity [3]: 2.82 U/ml; Activity [7]: 3.34 U/ml; Activity [8]: 3.72 U/ml
COc1ccc2[nH]c(SC3Cc4ccccc4/C3=N\N=C(N)N)nc2c1 (configuration not stated) | 7.77 | 
COc1cc2c(c(OC)c1OC)CC(Sc1nc3ccccc3s1)/C2=N/N=C(N)N (configuration not stated) | 8.70 | 
NC(N)=N/N=C1\c2cccc(Cl)c2CC1Sc1nc2ccccc2s1 (configuration not stated) | 7.69 | 
COc1ccc2c(c1)/C(=N\N=C(N)N)C(Sc1nc3ccccc3s1)C2.Cl (configuration not stated) | 8.72 | Activity [2]: 43.24%; Activity [3]: 3.38 U/ml
NC(N)=N/N=C1\c2ccc(Cl)cc2CC1Sc1nc2ccccc2s1 (configuration not stated) | 8.63 | 
